ChEMBL document CHEMBL5523687, “Pentafluorosulfanyl-substituted biaryl derivatives as MATE-type transporter inhibitors targeting drug-resistant bacteria” (Bioorg Med Chem, 2024)
Values after ≈ are worked out from the molar mass of the structure shown. Active and inactive are the calls of the source. The calls are words filed in the database; no cut-off is given here.

Tests used:
Escherichia coli [1] = assay: Inhibition of MATE-type HmrM in norfloxacin-resistant Escherichia coli KAM32 assessed as norfloxacin antibacterial activity by measuring norfloxacin MIC measured for 18 hrs incubation by CLSI based microplate reader analysis
Escherichia coli [2] = assay: Inhibition of MATE-type HmrM in norfloxacin-resistant Escherichia coli KAM32 assessed as norfloxacin antibacterial activity efficacy at 30 uM measured for 18 hrs incubation by CLSI based microplate reader analysis relative to norfloxacin alone
[3] = Inhibition of MATE-type HmrM (unknown origin); set-up: species or system Bacteria
Escherichia coli [4] = assay: Antibacterial activity against Escherichia coli KAM32 harboring PBR322 hmrM assessed as effect on bacterial growth at 10 uM measured for 30 hrs by microplate reader analysis; type: functional, organism-based
Escherichia coli [5] = assay: Antibacterial activity against Norfloxacin resistant Escherichia coli KAM32 harboring PBR322 assessed as inhibition of bacterial growth by measuring efficacy at 30 uM measured for 18 hrs by CLSI based analysis relative to control; type: functional
Escherichia coli [6] = assay: Antibacterial activity against Norfloxacin sensitive Escherichia coli KAM32 harboring PBR322 assessed as inhibition of bacterial growth by measuring efficacy at 30 uM measured for 18 hrs by CLSI based analysis relative to control; type: functional
Escherichia coli [7] = assay: Antibacterial activity against Norfloxacin sensitive Escherichia coli KAM32 harboring PBR322 assessed as reduction in bacterial growth measured for 18 hrs by CLSI based analysis; type: functional
Escherichia coli [8] = assay: Antibacterial activity against Norfloxacin resistant Escherichia coli KAM32 harboring PBR322 hmrM assessed as reduction in bacterial growth measured for 18 hrs by CLSI based analysis; type: functional
Bacteria = assay: Inhibition of MATE-type HmrM (unknown origin) at 100 uM relative to control

CN/C(=N\C#N)NCCCCCc1cccc(I)c1 showed an MIC (Escherichia coli [1]) of 0.056 µg/mL (≈ 0.151 µM) and an Efficacy (Escherichia coli [2]) of 0%.

Compound CN/C(=N\C#N)NCc1ccccc1-c1cccc(Cl)c1 has an MIC (Escherichia coli [1]) of 0.04 µg/mL (≈ 0.134 µM) and an Efficacy (Escherichia coli [2]) of 38%.

Compound COCCCCCc1cccc(Cl)c1 has an MIC (Escherichia coli [1]) of 0.056 µg/mL (≈ 0.263 µM) and an Efficacy (Escherichia coli [2]) of 0%.

For CN/C(=N\C#N)NCCCCCc1cccc(S(F)(F)(F)(F)F)c1, the MIC (Escherichia coli [1]) was 0.026 µg/mL (≈ 0.0702 µM) and the Efficacy (Escherichia coli [2]) was 71%.

CN/C(=N\C#N)NCCC/C=C/c1cccc(Cl)c1 showed an MIC (Escherichia coli [1]) of 0.026 µg/mL (≈ 0.0939 µM) and an Efficacy (Escherichia coli [2]) of 71%.

With CN(C)/C(=N\C#N)N(C)Cc1ccc(-c2cccc(S(F)(F)(F)(F)F)c2)cc1 the EC50 [3] was 1.8 µM, the Activity (Escherichia coli [4]) was “inactive” and the MIC (Escherichia coli [1]) was 0.014 µg/mL (≈ 0.0335 µM). For the same compound, the Efficacy (Escherichia coli [2]) was 100%.

With CN/C(=N/C#N)NCc1ccc(-c2cccc(Cl)c2)cc1 the MIC (Escherichia coli [1]) was 0.014 µg/mL (≈ 0.0469 µM) and the Efficacy (Escherichia coli [2]) was 100%.

Compound CN(C)/C(=N\C#N)N(C)CCCCCc1cccc(Cl)c1 has an MIC (Escherichia coli [1]) of 0.026 µg/mL (≈ 0.0847 µM) and an Efficacy (Escherichia coli [2]) of 71%.

In the case of OCCCCCc1cccc(Cl)c1, the MIC (Escherichia coli [1]) is reported as 0.056 µg/mL (≈ 0.282 µM) and the Efficacy (Escherichia coli [2]) is reported as 0%.

In the case of Clc1cccc(CCCCCn2ccnc2)c1, the MIC (Escherichia coli [1]) is reported as 0.04 µg/mL (≈ 0.161 µM) and the Efficacy (Escherichia coli [2]) is reported as 38%.

For CN/C(=N\C#N)NCCC/C=C\c1cccc(Cl)c1, the MIC (Escherichia coli [1]) was 0.026 µg/mL (≈ 0.0939 µM) and the Efficacy (Escherichia coli [2]) was 71%.

CN/C(=N\C#N)NCCCCCc1cccc(Br)c1 showed an MIC (Escherichia coli [1]) of 0.048 µg/mL (≈ 0.148 µM) and an Efficacy (Escherichia coli [2]) of 19%.

Work on CN/C(=N\C#N)NCCCC#Cc1cccc(S(F)(F)(F)(F)F)c1 yielded an MIC (Escherichia coli [1]) of 0.02 µg/mL (≈ 0.0546 µM) and an Efficacy (Escherichia coli [2]) of 100%.

CN/C(=N\C#N)NCCCCCc1cccc(NS(C)(=O)=O)c1 gave an MIC (Escherichia coli [1]) of 0.04 µg/mL (≈ 0.119 µM) and an Efficacy (Escherichia coli [2]) of 38%.

With C#Cc1cccc(CCCCCN/C(=N/C#N)NC)c1 the MIC (Escherichia coli [1]) was 0.04 µg/mL (≈ 0.149 µM) and the Efficacy (Escherichia coli [2]) was 57%.

Work on CN/C(=N\C#N)NCCCCCc1cccc(Cl)c1 yielded an MIC (Escherichia coli [1]) of 0.032 µg/mL (≈ 0.115 µM) and an Efficacy (Escherichia coli [2]) of 57%.

CCn1cc(C(=O)O)c(=O)c2cc(F)c(N3CCNCC3)cc21 [NORFLOXACIN] gave an Efficacy (Escherichia coli [5]) of 0%, an Efficacy (Escherichia coli [6]) of 100% and an MIC (Escherichia coli [7]) of 0.014 µg/mL (≈ 0.0438 µM). The MIC (Escherichia coli [8]) was 0.056 µg/mL (≈ 0.175 µM).

Compound CN/C(=N\C#N)NCCC[C@@H]1C[C@@H]1c1cccc(Cl)c1 has an MIC (Escherichia coli [1]) of 0.032 µg/mL (≈ 0.11 µM) and an Efficacy (Escherichia coli [2]) of 57%.

Compound CN/C(=N\C#N)NCCCNC(=O)c1cccc(Cl)c1 has an MIC (Escherichia coli [1]) of 0.056 µg/mL (≈ 0.191 µM) and an Efficacy (Escherichia coli [2]) of 0%.

With CN/C(=N\C#N)NCCCCCc1cccc(F)c1 the EC50 [3] was > 30 µM, the Efficacy (Bacteria) was 92% and the MIC (Escherichia coli [1]) was 0.04 µg/mL (≈ 0.152 µM). It also gave an Efficacy (Escherichia coli [2]) of 38%.

CN/C(=N\C#N)NCCCCCc1cccc(S(C)(=O)=O)c1 showed an MIC (Escherichia coli [1]) of 0.04 µg/mL (≈ 0.124 µM) and an Efficacy (Escherichia coli [2]) of 38%.

In the case of CN/C(=N\C#N)NCCC[C@H]1C[C@@H]1c1cccc(Cl)c1, the MIC (Escherichia coli [1]) is reported as 0.032 µg/mL (≈ 0.11 µM) and the Efficacy (Escherichia coli [2]) is reported as 57%.

In the case of CN/C(=N\C#N)NCc1cccc(-c2cccc(Cl)c2)c1, the MIC (Escherichia coli [1]) is reported as 0.04 µg/mL (≈ 0.134 µM) and the Efficacy (Escherichia coli [2]) is reported as 38%.

Clc1cccc(CCCCCN2CCOCC2)c1 gave an MIC (Escherichia coli [1]) of 0.056 µg/mL (≈ 0.209 µM) and an Efficacy (Escherichia coli [2]) of 0%.

CN(C)/C(=N\C#N)N(C)CCCC#Cc1cccc(Cl)c1 showed an EC50 [3] of 6.8 µM, an MIC (Escherichia coli [1]) of 0.014 µg/mL (≈ 0.0462 µM) and an Efficacy (Escherichia coli [2]) of 100%.

CN(C)/C(=N\C#N)N(C)Cc1ccc(-c2cccc(Cl)c2)cc1 gave an EC50 [3] of 4 µM, an MIC (Escherichia coli [1]) of 0.014 µg/mL (≈ 0.0428 µM) and an Efficacy (Escherichia coli [2]) of 100%.

Compound CN/C(=N\C#N)NCCCCCc1cccc(C)c1 has an MIC (Escherichia coli [1]) of 0.032 µg/mL (≈ 0.124 µM) and an Efficacy (Escherichia coli [2]) of 57%.

CN/C(=N\C#N)NCCCCCc1cccc(C#N)c1 showed an MIC (Escherichia coli [1]) of 0.032 µg/mL (≈ 0.119 µM) and an Efficacy (Escherichia coli [2]) of 57%.

In the case of CN(C)/C(=N\C#N)N(C)CCCC#Cc1cccc(S(F)(F)(F)(F)F)c1, the EC50 [3] is reported as 6.8 µM, the MIC (Escherichia coli [1]) is reported as 0.014 µg/mL (≈ 0.0355 µM) and the Efficacy (Escherichia coli [2]) is reported as 100%.

Compound CN/C(=N\C#N)NCCCC#Cc1cccc(Cl)c1 has an MIC (Escherichia coli [1]) of 0.026 µg/mL (≈ 0.0946 µM) and an Efficacy (Escherichia coli [2]) of 71%.

For CN/C(=N\C#N)NCCCCc1cccc(Cl)c1, the MIC (Escherichia coli [1]) was 0.04 µg/mL (≈ 0.151 µM) and the Efficacy (Escherichia coli [2]) was 38%.

For CN/C(=N/C#N)NCC#CC#Cc1cccc(Cl)c1, the MIC (Escherichia coli [1]) was 0.056 µg/mL (≈ 0.207 µM) and the Efficacy (Escherichia coli [2]) was 0%.
